Source: the supplement of paper PMC10307832

Assays:
Experiment in all cases: relative viability (nuclei count vs DMSO), 5 days (fraction); higher = more cells survive
IPA-3 + Linsitinib = compound: C1=CC=C2C(=C1)C=CC(=C2SSC3=C(C=CC4=CC=CC=C43)O)O [IPA-3] + C[C@]1(O)C[C@@H](c2nc(-c3ccc4ccc(-c5ccccc5)nc4c3)c3c(N)nccn32)C1 [Linsitinib] (partner 1 µM)
How it was run: (§1)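 Medians of duplicate plates are given as relative viability. That measure is the nuclei count in treated wells divided by the count in vehicle wells. Counts were taken on 4× images of lung cancer cell lines in 1536-well plates, 5 days after pin-tool dosing the day after seeding with one drug alone or a fixed anchor-drug dose plus five library-drug doses (not always all listed) in √10 steps.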

RAF265 + Bortezomib = compound: Cn1c(Nc2ccc(C(F)(F)F)cc2)nc2cc(Oc3ccnc(-c4ncc(C(F)(F)F)[nH]4)c3)ccc21 [RAF265] + CC(C)C[C@H](NC(=O)[C@H](Cc1ccccc1)NC(=O)c1cnccn1)B(O)O [Bortezomib] (partner 0.002 µM)
How it was run: as §1

IPA-3 + Crizotinib = compound: C1=CC=C2C(=C1)C=CC(=C2SSC3=C(C=CC4=CC=CC=C43)O)O [IPA-3] + C[C@@H](Oc1cc(-c2cnn(C3CCNCC3)c2)cnc1N)c1c(Cl)ccc(F)c1Cl [Crizotinib] (partner 1 µM)
How it was run: as §1

IPA-3 + Decitabine = compound: C1=CC=C2C(=C1)C=CC(=C2SSC3=C(C=CC4=CC=CC=C43)O)O [IPA-3] + Nc1ncn([C@H]2C[C@H](O)[C@@H](CO)O2)c(=O)n1 [Decitabine] (partner 2 µM)
How it was run: as §1

Cell Line: NCI-H2126
- relative viability (IPA-3 + Linsitinib; first compound 0.2 µM): 0.74
- relative viability (IPA-3 + Linsitinib; first compound 0.6325 µM): 0.659
- relative viability (IPA-3 + Linsitinib; first compound 2 µM): 0.7
- relative viability (IPA-3 + Linsitinib; first compound 6.325 µM): 0.768
- relative viability (IPA-3 + Linsitinib; first compound 20 µM): 0.812
- relative viability (RAF265 + Bortezomib; first compound 0.01 µM): 1.05
- relative viability (RAF265 + Bortezomib; first compound 0.03162 µM): 1.1
- relative viability (RAF265 + Bortezomib; first compound 0.1 µM): 1.13
- relative viability (RAF265 + Bortezomib; first compound 0.3162 µM): 1.14
- relative viability (RAF265 + Bortezomib; first compound 1 µM): 0.926
- relative viability (IPA-3 + Crizotinib; first compound 0.2 µM): 1.05
- relative viability (IPA-3 + Crizotinib; first compound 0.6325 µM): 0.983
- relative viability (IPA-3 + Crizotinib; first compound 2 µM): 1.05
- relative viability (IPA-3 + Crizotinib; first compound 6.325 µM): 1.03
- relative viability (IPA-3 + Crizotinib; first compound 20 µM): 1.14
- relative viability (IPA-3 + Decitabine; first compound 0.2 µM): 0.556
- relative viability (IPA-3 + Decitabine; first compound 0.6325 µM): 0.624
- relative viability (IPA-3 + Decitabine; first compound 2 µM): 0.595
- relative viability (IPA-3 + Decitabine; first compound 6.325 µM): 0.587
- relative viability (IPA-3 + Decitabine; first compound 20 µM): 0.622

Cell Line: NCI-H2347
- relative viability (IPA-3 + Linsitinib; first compound 0.2 µM): 1.02
- relative viability (IPA-3 + Linsitinib; first compound 0.6325 µM): 0.903
- relative viability (IPA-3 + Linsitinib; first compound 2 µM): 0.879
- relative viability (IPA-3 + Linsitinib; first compound 6.325 µM): 0.947
- relative viability (IPA-3 + Linsitinib; first compound 20 µM): 0.972
- relative viability (RAF265 + Bortezomib; first compound 0.01 µM): 0.801
- relative viability (RAF265 + Bortezomib; first compound 0.03162 µM): 1.03
- relative viability (RAF265 + Bortezomib; first compound 0.1 µM): 1.09
- relative viability (RAF265 + Bortezomib; first compound 0.3162 µM): 0.809
- relative viability (RAF265 + Bortezomib; first compound 1 µM): 0.573
- relative viability (IPA-3 + Crizotinib; first compound 0.2 µM): 0.834
- relative viability (IPA-3 + Crizotinib; first compound 0.6325 µM): 0.749
- relative viability (IPA-3 + Crizotinib; first compound 2 µM): 0.724
- relative viability (IPA-3 + Crizotinib; first compound 6.325 µM): 0.697
- relative viability (IPA-3 + Crizotinib; first compound 20 µM): 0.708
- relative viability (IPA-3 + Decitabine; first compound 0.2 µM): 0.629
- relative viability (IPA-3 + Decitabine; first compound 0.6325 µM): 0.611
- relative viability (IPA-3 + Decitabine; first compound 2 µM): 0.657
- relative viability (IPA-3 + Decitabine; first compound 6.325 µM): 0.622
- relative viability (IPA-3 + Decitabine; first compound 20 µM): 0.603

Cell Line: NCI-H2405
- relative viability (IPA-3 + Linsitinib; first compound 0.2 µM): 0.953
- relative viability (IPA-3 + Linsitinib; first compound 0.6325 µM): 0.923
- relative viability (IPA-3 + Linsitinib; first compound 2 µM): 0.936
- relative viability (IPA-3 + Linsitinib; first compound 6.325 µM): 0.912
- relative viability (IPA-3 + Linsitinib; first compound 20 µM): 1.03
- relative viability (RAF265 + Bortezomib; first compound 0.01 µM): 0.985
- relative viability (RAF265 + Bortezomib; first compound 0.03162 µM): 0.898
- relative viability (RAF265 + Bortezomib; first compound 0.1 µM): 0.995
- relative viability (RAF265 + Bortezomib; first compound 0.3162 µM): 0.975
- relative viability (RAF265 + Bortezomib; first compound 1 µM): 0.422
- relative viability (IPA-3 + Crizotinib; first compound 0.2 µM): 0.863
- relative viability (IPA-3 + Crizotinib; first compound 0.6325 µM): 0.865
- relative viability (IPA-3 + Crizotinib; first compound 2 µM): 0.856
- relative viability (IPA-3 + Crizotinib; first compound 6.325 µM): 0.841
- relative viability (IPA-3 + Crizotinib; first compound 20 µM): 0.878
- relative viability (IPA-3 + Decitabine; first compound 0.2 µM): 0.797
- relative viability (IPA-3 + Decitabine; first compound 0.6325 µM): 0.737
- relative viability (IPA-3 + Decitabine; first compound 2 µM): 0.723
- relative viability (IPA-3 + Decitabine; first compound 6.325 µM): 0.721
- relative viability (IPA-3 + Decitabine; first compound 20 µM): 0.746

Cell Line: NCI-H3122
- relative viability (IPA-3 + Linsitinib; first compound 0.2 µM): 1.05
- relative viability (IPA-3 + Linsitinib; first compound 0.6325 µM): 1.01
- relative viability (IPA-3 + Linsitinib; first compound 2 µM): 0.961
- relative viability (IPA-3 + Linsitinib; first compound 6.325 µM): 1.08
- relative viability (IPA-3 + Linsitinib; first compound 20 µM): 1.05
- relative viability (RAF265 + Bortezomib; first compound 0.01 µM): 0.955
- relative viability (RAF265 + Bortezomib; first compound 0.03162 µM): 1.02
- relative viability (RAF265 + Bortezomib; first compound 0.1 µM): 1.07
- relative viability (RAF265 + Bortezomib; first compound 0.3162 µM): 1.04
- relative viability (RAF265 + Bortezomib; first compound 1 µM): 0.922
- relative viability (IPA-3 + Crizotinib; first compound 0.2 µM): 0.265
- relative viability (IPA-3 + Crizotinib; first compound 0.6325 µM): 0.283
- relative viability (IPA-3 + Crizotinib; first compound 2 µM): 0.324
- relative viability (IPA-3 + Crizotinib; first compound 6.325 µM): 0.269
- relative viability (IPA-3 + Crizotinib; first compound 20 µM): 0.273
- relative viability (IPA-3 + Decitabine; first compound 0.2 µM): 0.517
- relative viability (IPA-3 + Decitabine; first compound 0.6325 µM): 0.467
- relative viability (IPA-3 + Decitabine; first compound 2 µM): 0.362
- relative viability (IPA-3 + Decitabine; first compound 6.325 µM): 0.459
- relative viability (IPA-3 + Decitabine; first compound 20 µM): 0.474
